Common to all, as to type: in vivo
The subject of one assay is Amaranthus retroflexus. The experiment in a line: greenhouse test, post-emergence treatment, AMARE. The text has this: (§1) The culture containers used were plastic flowerpots containing loamy sand with approximately 3.0% of humus as the substrate. The seeds of the test plants were sown separately for each species.
(§2) For the post-emergence treatment, the test plants were first grown to a height of 3 to 15 cm, depending on the plant habit, and only then treated with the active ingredients which had been suspended or emulsified in water. For this purpose, the test plants were either sown directly and grown in the same containers, or they were first grown separately as seedlings and transplanted into the test containers a few days prior to treatment.
(§3) Depending on the species, the plants were kept at 10-25° C. or 20-35° C., respectively.
(§4) The test period extended over 2 to 4 weeks. During this time, the plants were tended, and their response to the individual treatments was evaluated.
(§5) Evaluation was carried out using a scale from 0 to 100. 100 means no emergence of the plants, or complete destruction of at least the aerial moieties, and 0 means no damage, or normal course of growth. A good herbicidal activity is given at values of at least 70 and a very good herbicidal activity is given at values of at least 85.
(§6) The plants used in the greenhouse experiments were of the following species: […]

Assay [1] concerns Echinocloa crus-galli. The assay can be described thus: greenhouse test, post-emergence treatment, ECHCG. As to conditions: post-emergence. Summed up:
(§7)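 Seeds were sown per species in loamy sand with about 3.0% humus, grown (or transplanted as seedlings) to 3–15 cm, and treated with water-suspended or emulsified compound. Response was assessed over 2–4 weeks at species-dependent 10–25 °C or 20–35 °C, scored 0 (normal growth) to 100 (complete kill).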

The subject of a further assay is Setaria viridis. The assay can be described thus: greenhouse test, post-emergence treatment, SETVI.
Description: as §1, §2, §3, §4, §5, §6

The subject of another assay is Apera spica-venti. The assay can be described thus: greenhouse test, pre-emergence treatment, APESV. Summed up: (§8)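 Scores run from 0, normal growth, to 100, no emergence or aerial parts destroyed, assessed after 2 to 4 weeks at 10-25 °C or 20-35 °C depending on species. Actives in water were spray-applied immediately post-sowing onto loamy sand with approximately 3.0% humus; hoods kept on until rooting.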

Assay [2] has as its system Echinocloa crus-galli. The experiment in a line: greenhouse test, pre-emergence treatment, ECHCG. Summed up: as §8
The subject of the next assay is Avena fatua. The assay can be described thus: greenhouse test, post-emergence treatment, AVEFA. Summed up:
as §7

The subject of another assay is Alopecurus myosuroides. The experiment in a line: greenhouse test, post-emergence treatment, ALOMY. The following applies: post-emergence. Summed up:
as §7

The subject of the next assay is Abutilon theophrasti. The experiment in a line: greenhouse test, post-emergence treatment, ABUTH.
Description: as §1, §2, §3, §4, §5, §6

`Cc1ncoc1-c1nc(C2CC2)ncc1-c1cc(C(F)(F)F)ccc1Cl` [Ex. 262]: the herbicidal activity result in the assay on Amaranthus retroflexus (1000 g/ha), in the assay with Echinocloa crus-galli [1] (1000 g/ha), with Setaria viridis (1000 g/ha), in the assay with Apera spica-venti (1000 g/ha) and in the assay with Echinocloa crus-galli [2] (1000 g/ha) was “very good (a very good herbicidal activity is given at values of at least 85)” in each case.
Take `Clc1ccccc1-c1cnc(C2CC2)nc1C1CCCS1` (centres unmarked) [Ex. 55]: the herbicidal activity entry in the assay on Amaranthus retroflexus (1000 g/ha) and in the assay on Setaria viridis (1000 g/ha) was “very good (a very good herbicidal activity is given at values of at least 85)” in each case.
On to `Cc1occc1-c1nc(C2CC2)ncc1-c1ccccc1Cl` [Ex. 58], for which the herbicidal activity result was “good (A good herbicidal activity is given at values of at least 70)” in the assay with Avena fatua (1000 g/ha) and “very good (a very good herbicidal activity is given at values of at least 85)” in the assay on Setaria viridis (1000 g/ha).
Consider `CCc1nc(C)c(-c2nc(C3CC3)ncc2-c2ccccc2Cl)o1` [Ex. 272], for which the herbicidal activity entry in the assay on Alopecurus myosuroides (2000 g/ha), with Avena fatua (2000 g/ha), in the assay with Setaria viridis (2000 g/ha), in the assay with Apera spica-venti (2000 g/ha) and with Echinocloa crus-galli [2] (2000 g/ha) was “very good (a very good herbicidal activity is given at values of at least 85)” throughout.
For `Cc1ccccc1-c1cnc(C2CC2)nc1C` [Ex. 19], the herbicidal activity entry in the assay with Abutilon theophrasti (2000 g/ha) and in the assay on Amaranthus retroflexus (2000 g/ha) was “very good (a very good herbicidal activity is given at values of at least 85)” in each case.
Consider `CC(C)CC#Cc1nc(C2CC2)ncc1-c1ccccc1Cl` [Ex. 28], for which the herbicidal activity entry in the assay on Abutilon theophrasti (1163 g/ha) is “good (A good herbicidal activity is given at values of at least 70)”; in the assay with Amaranthus retroflexus (1163 g/ha), “very good (a very good herbicidal activity is given at values of at least 85)”.
With `Cc1coc(C)c1-c1nc(C2CC2)ncc1-c1ccccc1Br` [Ex. 252], the herbicidal activity entry in the assay with Abutilon theophrasti (1000 g/ha) is given as “very good (a very good herbicidal activity is given at values of at least 85)”.
`CC1(C)OCC(=Cc2nc(C3CC3)ncc2-c2ccccc2Cl)CO1` [Ex. 296]: in the assay with Abutilon theophrasti (1000 g/ha), the herbicidal activity entry was “very good (a very good herbicidal activity is given at values of at least 85)”.
Consider `COc1ncc(-c2ccccc2Cl)c(/C=C/c2ccco2)n1` [Ex. 228], for which the herbicidal activity entry in the assay with Abutilon theophrasti (1000 g/ha) is “good (A good herbicidal activity is given at values of at least 70)”; in the assay with Echinocloa crus-galli [1] (1000 g/ha), “good (A good herbicidal activity is given at values of at least 70)”; in the assay with Apera spica-venti (1000 g/ha), “very good (a very good herbicidal activity is given at values of at least 85)”.
In the case of `Cc1nc(C)c(-c2nc(C3CC3)ncc2-c2ccc(F)cc2Cl)o1` [Ex. 276], the herbicidal activity entry with Abutilon theophrasti (1000 g/ha), in the assay on Alopecurus myosuroides (1000 g/ha), in the assay on Amaranthus retroflexus (1000 g/ha) and in the assay on Apera spica-venti (1000 g/ha) was “very good (a very good herbicidal activity is given at values of at least 85)” each time.
In the case of `Cc1oc(Br)cc1-c1nc(C2CC2)ncc1-c1ccccc1Br` [Ex. 253], the herbicidal activity entry with Abutilon theophrasti (1000 g/ha) is given as “good (A good herbicidal activity is given at values of at least 70)”; with Alopecurus myosuroides (1000 g/ha) it was “very good (a very good herbicidal activity is given at values of at least 85)”; in the assay on Amaranthus retroflexus (1000 g/ha) it was “very good (a very good herbicidal activity is given at values of at least 85)”.
As for `Cn1c(-c2nc(C3CC3)ncc2-c2ccccc2Cl)coc1=O` [Ex. 289], the herbicidal activity result with Alopecurus myosuroides (2000 g/ha), in the assay on Amaranthus retroflexus (2000 g/ha), in the assay on Setaria viridis (2000 g/ha), with Apera spica-venti (2000 g/ha) and in the assay with Echinocloa crus-galli [2] (2000 g/ha) was “very good (a very good herbicidal activity is given at values of at least 85)” each time.
In the case of `Cc1nc(-c2nc(C3CC3)ncc2-c2ccccc2Cl)c(C)o1` [Ex. 277], the herbicidal activity entry in the assay on Alopecurus myosuroides (1000 g/ha), with Echinocloa crus-galli [1] (1000 g/ha), in the assay with Setaria viridis (1000 g/ha), in the assay on Apera spica-venti (1000 g/ha) and with Echinocloa crus-galli [2] (1000 g/ha) was “very good (a very good herbicidal activity is given at values of at least 85)” each time.
As for `Cc1ncoc1-c1nc(C2CC2)ncc1-c1cc(Br)ccc1Br` [Ex. 273], the herbicidal activity result in the assay with Alopecurus myosuroides (1000 g/ha), in the assay with Amaranthus retroflexus (1000 g/ha), in the assay with Setaria viridis (1000 g/ha), in the assay on Apera spica-venti (1000 g/ha) and in the assay with Echinocloa crus-galli [2] (1000 g/ha) was “very good (a very good herbicidal activity is given at values of at least 85)” in each case.
As for `CC(C)(C)c1ncc(-c2nc(C3CC3)ncc2-c2ccccc2Cl)o1` [Ex. 294], the herbicidal activity entry was “very good (a very good herbicidal activity is given at values of at least 85)” in the assay on Abutilon theophrasti (2000 g/ha), “very good (a very good herbicidal activity is given at values of at least 85)” in the assay with Alopecurus myosuroides (2000 g/ha), “very good (a very good herbicidal activity is given at values of at least 85)” with Echinocloa crus-galli [1] (2000 g/ha) and “good (A good herbicidal activity is given at values of at least 70)” in the assay on Apera spica-venti (2000 g/ha).
For the compound `Cc1nc(C(C)(Br)Br)ncc1-c1ccccc1Cl` [Ex. 50], the herbicidal activity result with Amaranthus retroflexus (500 g/ha) and in the assay on Setaria viridis (500 g/ha) was “very good (a very good herbicidal activity is given at values of at least 85)” each time.
For the compound `COC(=O)C(C)c1nc(C2CC2)ncc1-c1ccccc1Br` (centres unmarked) [Ex. 85], the herbicidal activity entry is “very good (a very good herbicidal activity is given at values of at least 85)” in the assay on Abutilon theophrasti (2000 g/ha) and “good (A good herbicidal activity is given at values of at least 70)” with Amaranthus retroflexus (2000 g/ha).
With `CCc1ocnc1-c1nc(C2CC2)ncc1-c1ccccc1Cl` [Ex. 282], the herbicidal activity entry in the assay on Alopecurus myosuroides (2000 g/ha), in the assay on Avena fatua (2000 g/ha), in the assay with Setaria viridis (2000 g/ha), in the assay on Apera spica-venti (2000 g/ha) and in the assay with Echinocloa crus-galli [2] (2000 g/ha) was “very good (a very good herbicidal activity is given at values of at least 85)” each time.
For the compound `CC(O)c1nc(C2CC2)ncc1-c1ccccc1Cl` (centres unmarked) [Ex. 49], the herbicidal activity entry with Alopecurus myosuroides (1000 g/ha) is reported as “very good (a very good herbicidal activity is given at values of at least 85)”; in the assay with Echinocloa crus-galli [1] (1000 g/ha) it was “good (A good herbicidal activity is given at values of at least 70)”; in the assay with Setaria viridis (1000 g/ha), “very good (a very good herbicidal activity is given at values of at least 85)”; in the assay with Apera spica-venti (1000 g/ha), “good (A good herbicidal activity is given at values of at least 70)”; with Echinocloa crus-galli [2] (1000 g/ha) it was “good (A good herbicidal activity is given at values of at least 70)”.
Take `Clc1ccccc1-c1cnc(C2CC2)nc1-c1cccnc1` [Ex. 123]: the results for the herbicidal activity result in the assay on Amaranthus retroflexus (2000 g/ha) and in the assay with Setaria viridis (2000 g/ha) were “very good (a very good herbicidal activity is given at values of at least 85)” and “good (A good herbicidal activity is given at values of at least 70)”, respectively.

(Values after patent US11178871B2, “Herbicidal pyrimidine compounds” (BASF SE, priority 2016, dated 2021).)
